EC50 and Emax data for five molecules are collected here from patent US12281149B2, “Modulators of G-protein coupled receptors” (priority 2021, dated 2025).

Broadly, the pEC50 is −log10 of the EC50, conventionally taken in molar units. Broadly, the Emax is the greatest response seen or fitted, relative to the assay's reference.

Holding throughout (format): cell-based
In experiment [1] the target is T1, GIP receptor (Homo sapiens, UniProt P48546).
T1 sequence (P48546 22-466): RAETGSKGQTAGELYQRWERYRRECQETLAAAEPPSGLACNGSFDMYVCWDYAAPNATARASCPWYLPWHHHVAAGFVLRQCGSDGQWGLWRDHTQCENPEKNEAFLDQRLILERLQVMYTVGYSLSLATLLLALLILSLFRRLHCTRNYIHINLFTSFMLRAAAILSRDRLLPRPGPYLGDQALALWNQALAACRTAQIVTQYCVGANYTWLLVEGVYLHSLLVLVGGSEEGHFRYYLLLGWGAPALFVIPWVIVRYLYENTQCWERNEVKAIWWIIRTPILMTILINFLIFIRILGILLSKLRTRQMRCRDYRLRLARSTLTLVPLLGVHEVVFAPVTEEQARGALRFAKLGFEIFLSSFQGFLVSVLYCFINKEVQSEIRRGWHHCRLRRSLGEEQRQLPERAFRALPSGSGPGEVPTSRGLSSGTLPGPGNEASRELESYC
Nature of the experiment: PathHunter β-arrestin assay, GIP receptor. On the set-up: host or cells: PathHunter CHO-K1 GIPR β-Arrestin Cell Line.

In experiment [2] the target is T2, GLP-1 receptor (Homo sapiens, UniProt P43220). The experiment can be described thus: HitHunter cAMP assay, GLP-1 receptor. The settings on record: for Emax: read-out: Emax GLP-1R. For orientation: Changes in cAMP serve as a functional read-out for many G protein-coupled receptors.
For experiment [3], the target named is T1, GIP receptor. The experiment can be described thus: HitHunter cAMP assay, GIP receptor. The settings on record: for Emax: read-out: Emax GIP-1R.
Experiment [4] concerns the target T2, GLP-1 receptor. The experiment can be described thus: PathHunter β-arrestin assay, GLP-1 receptor. More on the design: host or cells: PathHunter CHO-K1 GLP1R β-Arrestin Cell Line.
[5] abbreviates: β-arrestin-2 recruitment, PathHunter CHO-K1 GIPR β-Arrestin Cell Line, 90 min at 37° C., normalized to GIP, read-out: GIPR β Arrestin EC50.
[6] abbreviates: CHO cells stably expressing human GLP-1 receptor, cAMP accumulation, 30 min, read-out: EC50 GLP-1R.
The mark [7] stands for this setting: CHO cells, cAMP, normalized to maximum signal from GLP-1 (high) and DMSO (low).
[8] abbreviates: CHO cells stably expressing GIP receptor, cAMP accumulation, 30 min, read-out: EC50 GIP-1R.
The mark [9] stands for this setting: CHO cells, cAMP, normalized to maximum signal from GIP (high) and DMSO (low).
Setting [10] is: β-arrestin-2 recruitment, PathHunter CHO-K1 GLP1R β-Arrestin Cell Line, 90 min at 37° C., normalized to GLP-1, read-out: GLP-1R β Arrestin EC50.

Molecules are shown by their SMILES. pEC50: −log10 of the molar value. Like-named read-outs stand apart in the source and are kept apart here. *1 amine or outer side, *2 acyl side, *3 side chain or, on linkers, in order; H or OH if unused. Where a SMILES comes first, the peptide text is derived from it. Side-chain parts run from the residue outwards. [ ]: non-standard residue; d: D form. The star is where a group is joined. Isobutyryl(2-(3-CN-5-F-Ph)) = CC(C)(C(=O)*)c1cc(F)cc(C#N)c1; NH(4-Cl-3-CF3-phenyl) = FC(F)(F)c1cc(N*)ccc1Cl; C20 diacid = O=C(O)CCCCCCCCCCCCCCCCCCC(=O)*; γGlu = O=C(O)[C@H](CCC(=O)[*:2])N[*:1]; X36 = O=C(C1(c2ccc(Cl)cc2)CCCCC1)*; NH(4-Me-phenyl) = Cc1ccc(N*)cc1; AEEA = NCCOCCOCC(=O)O; Aib = CC(C)(N)C(=O)O; CO = O=C([*:1])[*:2]; GABA = NCCCC(=O)O; βAla = NCCC(=O)O Where only a bound is given, the exact number is not on record here.

T2 sequence (P43220 24-463): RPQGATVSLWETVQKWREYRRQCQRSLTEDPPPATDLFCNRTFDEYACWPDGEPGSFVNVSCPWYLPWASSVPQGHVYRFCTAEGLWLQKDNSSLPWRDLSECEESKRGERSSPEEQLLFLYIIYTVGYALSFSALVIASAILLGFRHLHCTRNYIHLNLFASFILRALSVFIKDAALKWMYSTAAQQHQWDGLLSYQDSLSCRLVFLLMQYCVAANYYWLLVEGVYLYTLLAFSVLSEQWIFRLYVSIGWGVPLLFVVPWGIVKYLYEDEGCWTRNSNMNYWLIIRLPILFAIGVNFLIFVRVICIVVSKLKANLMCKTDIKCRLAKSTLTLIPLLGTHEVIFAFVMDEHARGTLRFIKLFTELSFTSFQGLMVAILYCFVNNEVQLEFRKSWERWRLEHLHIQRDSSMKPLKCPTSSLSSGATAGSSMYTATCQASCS

Consider `CC[C@H](C)[C@H](NC(=O)[C@H](CO)NC(=O)[C@H](Cc1ccc(O)cc1)NC(=O)[C@H](CC(=O)O)NC(=O)[C@H](CO)NC(=O)[C@@H](NC(=O)[C@H](Cc1ccccc1)NC(=O)[C@@H](NC(=O)CNC(=O)[C@H](CCC(=O)O)NC(=O)CCNC(=O)C(C)(C)c1cc(F)cc(C#N)c1)[C@@H](C)O)[C@@H](C)O)C(=O)N[C@@H](Cc1ccc(O)cc1)C(=O)N[C@@H](CC(C)C)C(=O)N[C@@H](CC(=O)O)C(=O)N[C@@H](CCCCN)C(=O)N[C@@H](CCC(N)=O)C(=O)N[C@@H](C)C(=O)N[C@@H](C)C(=O)NC(C)(C)C(=O)N[C@@H](CCC(=O)O)C(=O)N[C@@H](Cc1ccccc1)C(=O)N[C@H](C(=O)N[C@@H](CC(N)=O)C(=O)N[C@@H](Cc1c[nH]c2ccccc12)C(=O)N[C@@H](CC(C)C)C(=O)N[C@@H](CC(C)C)C(=O)N[C@@H](C)C(=O)NCC(=O)NCC(=O)N1CCC[C@H]1C(=O)N[C@@H](CO)C(=O)N[C@@H](CO)C(=O)NCC(=O)N[C@@H](C)C(=O)N1CCC[C@H]1C(=O)N1CCC[C@H]1C(=O)N1CCC[C@H]1C(=O)N[C@@H](CO)C(=O)N[C@@H](CCCCNC(=O)COCCOCCNC(=O)COCCOCCNC(=O)CC[C@H](NC(=O)CCCCCCCCCCCCCCCCCCC(=O)O)C(=O)O)C(N)=O)C(C)C` [Compound 187], for which the pEC50 in experiment [1] (setting [5]) was < 6.00; in experiment [2] (setting [6]) it was 8.00 to 9.00; in experiment [3] (setting [8]) it was 7.00 to 8.00; in experiment [4] (setting [10]), < 6.00. Further, the maximal response (Emax) in experiment [2] (setting [7]) and in experiment [3] (setting [9]) was 95% in each case.

For `CC[C@H](C)[C@H](NC(=O)[C@H](CC(C)C)NC(=O)[C@H](Cc1c[nH]c2ccccc12)NC(=O)[C@H](CCC(N)=O)NC(=O)[C@@H](NC(=O)[C@H](Cc1ccccc1)NC(=O)[C@H](C)NC(=O)[C@H](CCCCNC(=O)COCCOCCNC(=O)COCCOCCNC(=O)CC[C@H](NC(=O)CCCCCCCCCCCCCCCCCCC(=O)O)C(=O)O)NC(=O)[C@H](CCC(N)=O)NC(=O)[C@H](C)NC(=O)[C@@H](NC(=O)[C@H](CCCCN)NC(=O)[C@H](CC(=O)O)NC(=O)[C@H](CC(C)C)NC(=O)C(C)(C)NC(=O)[C@@H](NC(=O)[C@H](CO)NC(=O)[C@H](Cc1ccc(O)cc1)NC(=O)[C@H](CC(=O)O)NC(=O)[C@H](CO)NC(=O)[C@@H](NC(=O)[C@H](Cc1ccccc1)NC(=O)[C@@H](NC(=O)CNC(=O)[C@H](CCC(=O)O)NC(=O)CCCNC(=O)CNC(=O)Nc1ccc(Cl)c(C(F)(F)F)c1)[C@@H](C)O)[C@@H](C)O)[C@@H](C)CC)[C@@H](C)CC)C(C)C)C(=O)N[C@@H](C)C(=O)NCC(=O)NCC(=O)N1CCC[C@H]1C(=O)N[C@@H](CO)C(=O)N[C@@H](CO)C(=O)NCC(=O)N[C@@H](C)C(=O)N1CCC[C@H]1C(=O)N1CCC[C@H]1C(=O)N1CCC[C@H]1C(=O)N[C@@H](CO)C(N)=O` [Compound 265] ({NH(4-Cl-3-CF3-phenyl)-CO}-G[GABA]EGTFTSDYSI[Aib]LDKIAQK([AEEA-AEEA-γGlu-C20 diacid])AFVQWLIAGGPSSGAPPPS-NH2), the pEC50 was > 6.00 in experiment [1], 7.00 to 8.00 in experiment [2], 8.00 to 9.00 in experiment [3] and < 6.00 in experiment [4]. The figures for the Emax in experiment [2] (CHO) and in experiment [3] (CHO) were 94% and 107%, respectively.

Regarding `CC[C@H](C)[C@H](NC(=O)[C@H](CC(C)C)NC(=O)[C@H](Cc1c[nH]c2ccccc12)NC(=O)[C@H](CCC(N)=O)NC(=O)[C@@H](NC(=O)[C@H](Cc1ccccc1)NC(=O)[C@H](C)NC(=O)[C@H](CCCCNC(=O)COCCOCCNC(=O)COCCOCCNC(=O)CC[C@H](NC(=O)CCCCCCCCCCCCCCCCCCC(=O)O)C(=O)O)NC(=O)[C@H](CCC(N)=O)NC(=O)[C@H](C)NC(=O)[C@@H](NC(=O)[C@H](CCCCN)NC(=O)[C@H](CC(=O)O)NC(=O)[C@H](CC(C)C)NC(=O)C(C)(C)NC(=O)[C@@H](NC(=O)[C@H](CO)NC(=O)[C@H](Cc1ccc(O)cc1)NC(=O)[C@H](CC(=O)O)NC(=O)[C@H](CO)NC(=O)[C@@H](NC(=O)[C@H](Cc1ccccc1)NC(=O)[C@@H](NC(=O)CNC(=O)[C@H](CCC(=O)O)NC(=O)CCNC(=O)C1(c2ccc(Cl)cc2)CCCCC1)[C@@H](C)O)[C@@H](C)O)[C@@H](C)CC)[C@@H](C)CC)C(C)C)C(=O)N[C@@H](C)C(=O)NCC(=O)NCC(=O)N1CCC[C@H]1C(=O)N[C@@H](CO)C(=O)N[C@@H](CO)C(=O)NCC(=O)N[C@@H](C)C(=O)N1CCC[C@H]1C(=O)N1CCC[C@H]1C(=O)N1CCC[C@H]1C(=O)N[C@@H](CO)C(N)=O` [Compound 174] ({X36-βAla}-EGTFTSDYSI[Aib]LDKIAQK([AEEA-AEEA-γGlu-C20 diacid])AFVQWLIAGGPSSGAPPPS-NH2), the pEC50 is < 6.00 in experiment [1] (setting [5]), 7.00 to 8.00 in experiment [2] (setting [6]), 7.00 to 8.00 in experiment [3] (setting [8]) and < 6.00 in experiment [4] (setting [10]). In addition, the Emax in experiment [2] (setting [7]) was found to be 93%; in experiment [3] (setting [9]) it was 104%.

Consider `CC[C@H](C)[C@H](NC(=O)[C@H](CC(C)C)NC(=O)[C@H](Cc1c[nH]c2ccccc12)NC(=O)[C@H](CCC(N)=O)NC(=O)[C@@H](NC(=O)[C@H](Cc1ccccc1)NC(=O)[C@H](C)NC(=O)[C@H](CCCCNC(=O)COCCOCCNC(=O)COCCOCCNC(=O)CC[C@H](NC(=O)CCCCCCCCCCCCCCCCCCC(=O)O)C(=O)O)NC(=O)[C@H](C)NC(=O)[C@H](C)NC(=O)[C@@H](NC(=O)[C@H](CCCCN)NC(=O)[C@H](CC(=O)O)NC(=O)[C@H](CC(C)C)NC(=O)C(C)(C)NC(=O)[C@@H](NC(=O)[C@H](CO)NC(=O)[C@H](Cc1ccc(O)cc1)NC(=O)[C@H](CC(=O)O)NC(=O)[C@H](CO)NC(=O)[C@@H](NC(=O)[C@H](Cc1ccccc1)NC(=O)[C@@H](NC(=O)CNC(=O)[C@H](CCC(=O)O)NC(=O)CCNC(=O)C(C)(C)c1cc(F)cc(C#N)c1)[C@@H](C)O)[C@@H](C)O)[C@@H](C)CC)[C@@H](C)CC)C(C)C)C(=O)N[C@@H](C)C(=O)NCC(=O)NCC(=O)N1CCC[C@H]1C(=O)N[C@@H](CO)C(=O)N[C@@H](CO)C(=O)NCC(=O)N[C@@H](C)C(=O)N1CCC[C@H]1C(=O)N1CCC[C@H]1C(=O)N1CCC[C@H]1C(=O)N[C@@H](CO)C(N)=O` [Compound 183] ({Isobutyryl(2-(3-CN-5-F-Ph))-βAla}-EGTFTSDYSI[Aib]LDKIAAK([AEEA-AEEA-γGlu-C20 diacid])AFVQWLIAGGPSSGAPPPS-NH2), for which the pEC50 in experiment [1] (setting [5]) was < 6.00; in experiment [2] (setting [6]) it was 9.00 to 10.00; in experiment [3] (setting [8]), 7.00 to 8.00; in experiment [4] (setting [10]) it was < 6.00. Besides, the Emax was found to be 96% in experiment [2] (setting [7]) and 95% in experiment [3] (setting [9]).

For `CC[C@H](C)[C@H](NC(=O)[C@H](CC(C)C)NC(=O)[C@H](Cc1c[nH]c2ccccc12)NC(=O)[C@H](CCC(N)=O)NC(=O)[C@@H](NC(=O)[C@H](Cc1ccccc1)NC(=O)[C@H](C)NC(=O)[C@H](CCCCNC(=O)COCCOCCNC(=O)COCCOCCNC(=O)CC[C@H](NC(=O)CCCCCCCCCCCCCCCCCCC(=O)O)C(=O)O)NC(=O)[C@H](CCC(N)=O)NC(=O)[C@H](C)NC(=O)[C@@H](NC(=O)[C@H](CCCCN)NC(=O)[C@H](CC(=O)O)NC(=O)[C@H](CC(C)C)NC(=O)C(C)(C)NC(=O)[C@@H](NC(=O)[C@H](CO)NC(=O)[C@H](Cc1ccc(O)cc1)NC(=O)[C@H](CC(=O)O)NC(=O)[C@H](CO)NC(=O)[C@@H](NC(=O)[C@H](Cc1ccccc1)NC(=O)[C@@H](NC(=O)CNC(=O)[C@H](CCC(=O)O)NC(=O)CCNC(=O)[C@H](C)NC(=O)Nc1ccc(C)cc1)[C@@H](C)O)[C@@H](C)O)[C@@H](C)CC)[C@@H](C)CC)C(C)C)C(=O)N[C@@H](C)C(=O)NCC(=O)NCC(=O)N1CCC[C@H]1C(=O)N[C@@H](CO)C(=O)N[C@@H](CO)C(=O)NCC(=O)N[C@@H](C)C(=O)N1CCC[C@H]1C(=O)N1CCC[C@H]1C(=O)N1CCC[C@H]1C(=O)N[C@@H](CO)C(N)=O` [Compound 272] ({NH(4-Me-phenyl)-CO}-A[βAla]EGTFTSDYSI[Aib]LDKIAQK([AEEA-AEEA-γGlu-C20 diacid])AFVQWLIAGGPSSGAPPPS-NH2), the pEC50 in experiment [1] is < 6.00; in experiment [2], 7.00 to 8.00; in experiment [3], 7.00 to 8.00; in experiment [4] it was < 6.00. In addition, the Emax in experiment [2] (CHO) worked out at 75%; in experiment [3] (CHO) it was 91%.
